Patent US9278950B2, “Bicyclic aromatic carboxamide compounds useful as Pim kinase inhibitors” (Incyte Corporation, priority 2013, dated 2016)
pIC50: −log10 of the molar value.

How the values were obtained:
Type in all cases: biochemical
[1] = target: T1, Pim2 (Homo sapiens, UniProt Q9P1W9); test: Pim-2 kinase assay (Pim enzyme assays, Example A); details: 1 mM ATP; read-out: Pim2 IC50
T1 construct: purchased Invitrogen PV3649
Protocol: Pim-2 kinase assay—20 μL reactions were run in white 384 well polystyrene plates dotted with 0.8 μL compound/DMSO in the assay buffer (50 mM Tris, pH 7.5, 0.01% Tween-20, 5 mM mgCl2, 0.01% BSA, 5 mM DTT), containing 0.05 μM Fluorescein-labeled CREBtide peptide substrate (Invitrogen PV3508), 1 mM ATP, and 1 nM enzyme (Invitrogen PV3649) for 2 h at 25° C. Reactions were stopped by addition of 10 μL TR-FRET Dilution Buffer (Invitrogen PV3574) with 30 mM EDTA and 1.5 nM LanthaScreen Tb-CREB pSer133 antibody (Invitrogen PV3566). After 30 min. incubation at room temperature, plates were read on a PHERAstar FS plate reader (BMG Labtech).

[2] = target: T2, Pim-1 (Homo sapiens, UniProt P11309); test: Pim-1 kinase assay (Pim enzyme assays, Example A); details: 1 mM ATP; read-out: Pim1 IC50
T2 construct: purchased Invitrogen PV3503
T2 sequence (P11309 whole entry): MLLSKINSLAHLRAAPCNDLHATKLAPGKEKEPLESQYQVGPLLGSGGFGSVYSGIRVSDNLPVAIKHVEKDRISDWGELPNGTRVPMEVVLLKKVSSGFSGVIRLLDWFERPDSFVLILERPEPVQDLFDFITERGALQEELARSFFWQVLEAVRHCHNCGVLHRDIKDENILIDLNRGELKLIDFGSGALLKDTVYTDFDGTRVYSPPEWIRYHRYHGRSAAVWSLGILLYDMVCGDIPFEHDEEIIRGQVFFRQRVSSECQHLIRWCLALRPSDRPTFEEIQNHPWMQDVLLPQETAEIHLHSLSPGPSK
Protocol: (§1) Pim-1 and Pim-3 kinase assays-20 μL reactions were run in white 384 well polystyrene plates dotted with 0.8 μL compound/DMSO in the assay buffer (50 mM Tris, pH 7.5, 0.01% Tween-20, 5 mM mgCl2, 0.01% BSA, 5 mM DTT), containing 0.05 μM Biotin-labeled BAD peptide substrate (AnaSpec 62269), 1 mM ATP, and […] (Pim-1, Invitrogen PV3503) or […] (Pim-3, Millipore 14-738) enzyme for 1 h at 25° C. Reactions were stopped by addition of 10 μL STOP Buffer (150 mM Tris, pH=7.5, 150 mM NaCl, 75 mM EDTA, 0.01% Tween-20, 0.3% BSA,) supplemented with Phospho-Bad (Ser 12) Antibody (Cell Signaling 9291) diluted 666-fold, and Streptavidin donor beads (PerkinElmer 6760002) along with Protein-A acceptor beads (PerkinElmer 6760137) at 15 μg/mL each. Supplementation of the STOP buffer with beads and stopping the reactions were done under reduced light. Prior to the stopping reactions STOP buffer with beads was preincubated for 1 h in the dark at room temperature. After stopping the reactions, plates were incubated for 1 h in the dark at room temperature before reading on a PHERAstar FS plate reader (BMG Labtech) under reduced light.

[3] = target: T3, Pim-3 (Homo sapiens, UniProt Q86V86); test: Pim-3 kinase assay (Pim enzyme assays, Example A); details: 1 mM ATP; read-out: Pim3 IC50
T3 construct: purchased Millipore 14-738
Protocol: as §1

T1 sequence (Q9P1W9 whole entry): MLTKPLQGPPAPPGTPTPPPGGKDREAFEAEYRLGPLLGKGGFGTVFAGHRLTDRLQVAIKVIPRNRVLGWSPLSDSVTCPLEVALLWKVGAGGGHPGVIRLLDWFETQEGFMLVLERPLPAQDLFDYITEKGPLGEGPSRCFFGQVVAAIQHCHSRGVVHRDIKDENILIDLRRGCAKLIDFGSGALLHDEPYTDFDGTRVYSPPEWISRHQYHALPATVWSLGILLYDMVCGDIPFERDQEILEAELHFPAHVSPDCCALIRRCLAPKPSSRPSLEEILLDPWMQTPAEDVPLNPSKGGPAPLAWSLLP

| pIC50 [1] | pIC50 [2] | pIC50 [3] | SMILES |
| --- | --- | --- | --- |
| ≥ 7.00 | ≥ 7.00 | ≥ 7.00 | CCc1ccc2cc(N)c(C(=O)Nc3cncc(C)c3N3C[C@@H](N)[C@H](O)[C@@H](C)C3)nc2c1 [Example 28, 3-Amino-N-{4-[(3R,4R,5S)-3-amino-4-hydroxy-5-methylpiperidin-1-yl]-5-methylpyridin-3-yl}-7-ethylquinoline-2-carboxamide] |
| ≥ 7.00 | ≥ 7.00 | ≥ 7.00 | CCc1ccc2cc(N)c(C(=O)Nc3cnccc3N3C[C@@H](N)[C@H](O)[C@@H](C)C3)nc2c1 [Example 29, 3-Amino-N-{4-[(3R,4R,5S)-3-amino-4-hydroxy-5-methylpiperidin-1-yl]pyridin-3-yl}-7-ethylquinoline-2-carboxamide] |
| ≥ 7.00 | ≥ 7.00 | ≥ 7.00 | CCc1ccc2cc(N)c(C(=O)Nc3cncc(C)c3N3CCC[C@H](N)C3)nc2c1 [Example 30, 3-Amino-N-{4-[(3S)-3-aminopiperidin-1-yl]-5-methylpyridin-3-yl}-7-ethylquinoline-2-carboxamide] |
| < 5.70 | < 7.40 | ≥ 7.00 | CCc1ccc2cc(N)c(C(=O)Nc3cnc(OC)cc3N3CCC[C@H](N)C3)nc2c1 [Example 31, 3-Amino-N-{4-[(3S)-3-aminopiperidin-1-yl]-6-methoxypyridin-3-yl}-7-ethylquinoline-2-carboxamide] |
| < 5.70 | ≥ 7.00 | ≥ 7.00 | CCc1ccc2cc(N)c(C(=O)Nc3cncc(C#N)c3N3CCC[C@H](N)C3)nc2c1 [Example 32, 3-Amino-N-{4-[(3S)-3-aminopiperidin-1-yl]-5-cyanopyridin-3-yl}-7-ethylquinoline-2-carboxamide] |
| 6.00 to 7.00 | ≥ 7.00 | ≥ 7.00 | C[C@H]1CN(c2ccncc2NC(=O)c2nc3cc(N4CCOCC4)ccc3cc2N)C[C@@H](N)[C@@H]1O [Example 33, 3-Amino-N-{4-[(3R,4R,5S)-3-amino-4-hydroxy-5-methylpiperidin-1-yl]pyridin-3-yl}-7-morpholin-4-ylquinoline-2-carboxamide] |
| ≥ 7.00 | ≥ 7.00 | ≥ 7.00 | C[C@@H]1C[C@H](N)CN(c2ccncc2NC(=O)c2nc3cc(N4CCOCC4)ccc3cc2N)C1 [Example 34, 3-Amino-N-{4-[(3S,5R)-3-amino-5-methylpiperidin-1-yl]pyridin-3-yl}-7-morpholin-4-ylquinoline-2-carboxamide] |
| 6.00 to 7.00 | ≥ 7.00 | ≥ 7.00 | Nc1cc2ccc(N3CCOCC3)cc2nc1C(=O)Nc1cnccc1N1C[C@@H](N)C[C@@H](C(F)(F)F)C1 [Example 35, 3-Amino-N-{4-[(3S,5R)-3-amino-5-(trifluoromethyl)piperidin-1-yl]pyridin-3-yl}-7-morpholin-4-ylquinoline-2-carboxamide] |
| ≥ 7.00 | ≥ 7.00 | ≥ 7.00 | C[C@@H]1C[C@H](N)CN(c2ccncc2NC(=O)c2nc3cc(N4CCN(C)CC4)ccc3cc2N)C1 [Example 36, 3-Amino-N-{4-[(3S,5R)-3-amino-5-methylpiperidin-1-yl]pyridin-3-yl}-7-(4-methylpiperazin-1-yl)quinoline-2-carboxamide] |
| 6.00 to 7.00 | ≥ 7.00 | ≥ 7.00 | CN1CCN(c2ccc3cc(N)c(C(=O)Nc4cnccc4N4C[C@@H](N)C[C@@H](C(F)(F)F)C4)nc3c2)CC1 [Example 37, 3-Amino-N-{4-[(3S,5R)-3-amino-5-(trifluoromethyl)piperidin-1-yl]pyridin-3-yl}-7-(4-methylpiperazin-1-yl)quinoline-2-carboxamide] |
| ≥ 7.00 | ≥ 7.00 | ≥ 7.00 | C[C@H]1CN(c2ccncc2NC(=O)c2nc3cc(N4CCN(C)CC4)ccc3cc2N)C[C@@H](N)[C@@H]1O [Example 38, 3-Amino-N-{4-[(3R,4R,5S)-3-amino-4-hydroxy-5-methylpiperidin-1-yl]pyridin-3-yl}-7-(4-methylpiperazin-1-yl)quinoline-2-carboxamide] |
| ≥ 7.00 | ≥ 7.00 | ≥ 7.00 | Nc1cc2ccc(C3CCOCC3)cc2nc1C(=O)Nc1cnccc1N1C[C@@H](N)C[C@@H](C(F)(F)F)C1 [Example 39, 3-Amino-N-{4-[(3S,5R)-3-amino-5-(trifluoromethyl)piperidin-1-yl]pyridin-3-yl}-7-(tetrahydro-2H-pyran-4-yl)quinoline-2-carboxamide] |
| ≥ 7.00 | ≥ 7.00 | ≥ 7.00 | C[C@@H]1C[C@H](N)CN(c2ccncc2NC(=O)c2nc3cc(C4CCOCC4)ccc3cc2N)C1 [Example 40, 3-Amino-N-{4-[(3S,5R)-3-amino-5-methylpiperidin-1-yl]pyridin-3-yl}-7-(tetrahydro-2H-pyran-4-yl)quinoline-2-carboxamide] |
| ≥ 7.00 | ≥ 7.00 | ≥ 7.00 | C[C@H]1CN(c2ccncc2NC(=O)c2nc3cc(C4CCOCC4)ccc3cc2N)C[C@@H](N)[C@@H]1O [Example 41, 3-Amino-N-{4-[(3R,4R,5S)-3-amino-4-hydroxy-5-methylpiperidin-1-yl]pyridin-3-yl}-7-(tetrahydro-2H-pyran-4-yl)quinoline-2-carboxamide] |
| ≥ 7.00 | ≥ 7.00 | ≥ 7.00 | C[C@H]1CN(c2ccncc2NC(=O)c2nc3cc(C4CCN(C)CC4)ccc3cc2N)C[C@@H](N)[C@@H]1O [Example 42, 3-Amino-N-{4-[(3R,4R,5S)-3-amino-4-hydroxy-5-methylpiperidin-1-yl]pyridin-3-yl}-7-(1-methylpiperidin-4-yl)quinoline-2-carboxamide] |
| ≥ 7.00 | ≥ 7.00 | ≥ 7.00 | C[C@@H]1C[C@H](N)CN(c2ccncc2NC(=O)c2nc3cc(C4CCN(C)CC4)ccc3cc2N)C1 [Example 43, 3-Amino-N-{4-[(3S,5R)-3-amino-5-methylpiperidin-1-yl]pyridin-3-yl}-7-(1-methylpiperidin-4-yl)quinoline-2-carboxamide] |
| ≥ 7.00 | ≥ 7.00 | ≥ 7.00 | CN1CCC(c2ccc3cc(N)c(C(=O)Nc4cnccc4N4C[C@@H](N)C[C@@H](C(F)(F)F)C4)nc3c2)CC1 [Example 44, 3-Amino-N-{4-[(3S,5R)-3-amino-5-(trifluoromethyl)piperidin-1-yl]pyridin-3-yl}-7-(1-methylpiperidin-4-yl)quinoline-2-carboxamide] |
| 6.00 to 7.00 | ≥ 7.00 | ≥ 7.00 | C[C@@H]1C[C@H](N)CN(c2ccncc2NC(=O)c2nc3cc(N4CCCCC4=O)ccc3cc2N)C1 [Example 45, 3-Amino-N-{4-[(3S,5R)-3-amino-5-methylpiperidin-1-yl]pyridin-3-yl}-7-(2-oxopiperidin-1-yl)quinoline-2-carboxamide] |
| 6.00 to 7.00 | ≥ 7.00 | ≥ 7.00 | C[C@@H]1C[C@H](N)CN(c2ccncc2NC(=O)c2nc3cc(N4CCN(C)C(=O)C4)ccc3cc2N)C1 [Example 46, 3-Amino-N-{4-[(3S,5R)-3-amino-5-methylpiperidin-1-yl]pyridin-3-yl}-7-(4-methyl-3-oxopiperazin-1-yl)quinoline-2-carboxamide] |
| 6.00 to 7.00 | ≥ 7.00 | ≥ 7.00 | C[C@@H]1C[C@H](N)CN(c2ccncc2NC(=O)c2nc3cc(N4CCNC(=O)C4)ccc3cc2N)C1 [Example 47, 3-Amino-N-{4-[(3S,5R)-3-amino-5-methylpiperidin-1-yl]pyridin-3-yl}-7-(3-oxopiperazin-1-yl)quinoline-2-carboxamide] |
| ≥ 7.00 | ≥ 7.00 | ≥ 7.00 | C[C@H]1CN(c2ccncc2NC(=O)c2nc3cc(N4CCN(C)C(=O)C4)ccc3cc2N)C[C@@H](N)[C@@H]1O [Example 48, 3-Amino-N-{4-[(3R,4R,5S)-3-amino-4-hydroxy-5-methylpiperidin-1-yl]pyridin-3-yl}-7-(4-methyl-3-oxopiperazin-1-yl)quinoline-2-carboxamide] |
| 6.00 to 7.00 | ≥ 7.00 | ≥ 7.00 | C[C@H]1CN(c2ccncc2NC(=O)c2nc3cc(N4CCCCC4=O)ccc3cc2N)C[C@@H](N)[C@@H]1O [Example 49, 3-Amino-N-{4-[(3R,4R,5S)-3-amino-4-hydroxy-5-methylpiperidin-1-yl]pyridin-3-yl}-7-(2-oxopiperidin-1-yl)quinoline-2-carboxamide] |
